Source: patent US8633245B2, “PAI-1 inhibitor” (Institute of Medicinal Molecular Design, Inc., priority 2008, dated 2014)

Target: T1, recombinant human PAI-1 (Homo sapiens, UniProt P05121)
T1 construct: purchased Molecular Innovations, Inc
Experiment: Test Example 2: human PAI-1 inhibitory activity (tPA fluorogenic substrate, pH 7.4 HEPES buffer)
Assay type: biochemical
Settings: human PAI-1
Protocol: 0.1 M HEPES, 0.1 M NaCl. 1 mM EDTA. 0.1% Polyethylene glycol 8,000 (Hampton Research Corporation),
2 mM Dimethyldecylphoshine oxide [Apo-10] (Fluka Corporation)

T1 sequence (P05121 24-402): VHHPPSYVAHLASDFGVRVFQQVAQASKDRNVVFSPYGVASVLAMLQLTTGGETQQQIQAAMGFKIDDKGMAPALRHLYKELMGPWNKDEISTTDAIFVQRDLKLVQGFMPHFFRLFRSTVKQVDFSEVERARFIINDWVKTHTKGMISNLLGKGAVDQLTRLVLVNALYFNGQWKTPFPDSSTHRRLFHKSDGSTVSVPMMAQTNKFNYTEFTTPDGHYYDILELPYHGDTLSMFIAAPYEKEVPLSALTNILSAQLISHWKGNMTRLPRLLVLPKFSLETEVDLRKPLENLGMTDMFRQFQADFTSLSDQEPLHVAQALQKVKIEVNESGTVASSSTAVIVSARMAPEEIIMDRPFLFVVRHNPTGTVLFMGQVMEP

| SMILES | Inhibition Rate of PAI-1 Activity (%) (compound concentration 0.1 μM) | Inhibition Rate of PAI-1 Activity (%) (compound concentration 0.3 μM) | Inhibition Rate of PAI-1 Activity (%) (compound concentration 1 μM) | Inhibition Rate of PAI-1 Activity (%) (compound concentration 3 μM) |
| --- | --- | --- | --- | --- |
| CC(C)(C)c1ccc(Oc2cc(-c3cccc(OC(F)(F)F)c3)ccc2CCC(=O)O)cc1 [Compound 504] | 13% | 26% | 91% | >99% |
| O=C(O)/C=C/c1ccc(-c2ccc(OC(F)(F)F)cc2)cc1OC(c1ccccc1)c1ccccc1 [Compound 506] | 2% | 9% | 78% | >99% |
| O=C(O)CCc1ccc(-c2ccc(OC(F)(F)F)cc2)cc1OC(c1ccccc1)c1ccccc1 [Compound 507] | 6% | 8% | 49% | >99% |
| O=C(O)CCc1ccc(-c2ccc(OC(F)(F)F)cc2)cc1OCCCSc1ccccc1 [Compound 508] | 18% | 9% | 48% | 98% |
| CC(C)c1ccc(Oc2cc(-c3ccc(OC(F)(F)F)cc3)ccc2/C=C/C(=O)O)cc1 [Compound 509] | 1% | 22% | 96% | >99% |
| CC(C)c1ccc(Oc2cc(-c3ccc(OC(F)(F)F)cc3)ccc2CCC(=O)O)cc1 [Compound 510] | 0% | 8% | 84% | >99% |
| CCCCc1ccc(Oc2cc(-c3ccc(OC(F)(F)F)cc3)ccc2/C=C/C(=O)O)cc1 [Compound 511] | 11% | 68% | >99% | >99% |
| CCCCc1ccc(Oc2cc(-c3ccc(OC(F)(F)F)cc3)ccc2CCC(=O)O)cc1 [Compound 512] | 18% | 41% | 96% | 98% |
| CC(C)c1ccccc1Oc1cc(-c2ccc(OC(F)(F)F)cc2)ccc1OCC(=O)O [Compound 513] | 17% | 7% | 69% | >99% |
| CC(C)(C)c1cccc(Oc2cc(-c3cccc(OC(F)(F)F)c3)ccc2/C=C/C(=O)O)c1 [Compound 514] | 21% | 22% | 96% | >99% |
| CC(C)(C)c1cccc(Oc2cc(-c3cccc(OC(F)(F)F)c3)ccc2CCC(=O)O)c1 [Compound 515] | 12% | 16% | 86% | >99% |
| CC(C)c1ccc(Sc2cc(-c3ccc(OC(F)(F)F)cc3)ccc2/C=C/C(=O)O)cc1 [Compound 516] | 16% | 39% | 98% | >99% |
| CC(C)(C)c1ccc(Sc2cc(-c3ccc(OC(F)(F)F)cc3)ccc2CCC(=O)O)cc1 [Compound 517] | 20% | 50% | 95% | >99% |
| CC(C)c1ccc(-c2ccc(/C=C/C(=O)O)c(Oc3ccc(C(C)(C)C)cc3)c2)cc1 [Compound 518] | 14% | 54% | >99% | >99% |
| CC(C)c1ccc(-c2ccc(CCC(=O)O)c(Oc3ccc(C(C)(C)C)cc3)c2)cc1 [Compound 519] | 1% | 19% | >99% | >99% |
| CC(C)c1ccc(-c2ccc(/C=C/C(=O)O)c(Sc3ccc(C(C)(C)C)cc3)c2)cc1 [Compound 520] | 14% | 72% | >99% | >99% |
| CCC(CC)Oc1ccc(-c2ccc(/C=C/C(=O)O)c(Oc3ccc(C(C)(C)C)cc3)c2)cc1 [Compound 521] | 25% | 82% | >99% | >99% |
| CCC(CC)Oc1ccc(-c2ccc(CCC(=O)O)c(Oc3ccc(C(C)(C)C)cc3)c2)cc1 [Compound 522] | 33% | 71% | 98% | 98% |
| CCCCOc1ccc(Oc2cc(-c3ccc(OC(F)(F)F)cc3)ccc2OCC(=O)O)cc1 [Compound 523] | 11% | 15% | 78% | >99% |
